Measured values from patent US20260007613A1, “LONG-ACTING LOW-TOXICITY NOVEL CATIONIC LIPID COMPOUNDS AND COMPOSITION THEREOF” (BEIJING YOUCAREKECHUANG PHARMACEUTICAL TECHNOLOGY CO., LTD., priority 2023, published 2026).
Several values for one entry are separate records, joined by “and”; a condition that tells them apart may be missing. Equal entries are not always repeated.

Key:
293T cells [1] = test: Fluorescent detection of Fluc-mRNA (cell transfection efficiency of LNP formulations); format: cell-based
Summary of the method: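 Transfection read-out: IVIS imaging after […], 24 h after adding LNPs (lipid molar ratio 49:10:39.5:1.5 cationic/neutral/structured/polymer-lipid; […] Fluc-mRNA). Adherent 293T cells were seeded overnight at 10,000 per well beforehand.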

[2] = Particle size and polydispersity index (PDI) of lipid nanoparticles by dynamic light scattering; format: physicochemical; details: LNP formulation prepared from the cationic lipid, 25° C.
Description: The particle size and polydispersity index (PDI) were determined by dynamic light scattering using Malvern laser particle size analyzer.
10 μL of the liposome solution was weighed, diluted to 1 mL with RNase-free deionized water, and added to the sample pool. Each sample was measured in triplicate. The measurement conditions were: […] scattering angle, and 25° C.

293T cells [3] = test: Cell survival rate determination (CCK-8); format: cell-based
Summary of the method: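 Readout was CCK-8 absorbance (450 nm, 1 h) taken after a 24 h exposure of overnight-adhered 293T cells (10,000 per well, 96-well) to Lipofectamine 3000 or to LNPs carrying Fluc-mRNA, lipid molar ratio 49:10:39.5:1.5 cationic/neutral/structured/polymer-conjugated.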

female BALB/C mice = test: Live imaging in mice: protein expression of Fluc-mRNA delivered by LNP formulations; format: in vivo; details: for average radiation intensity, times that of ALC-0315: comparator ALC-0315; for average radiation intensity, times that of HHMA: comparator HHMA; for average radiation intensity, times that of SM-102: comparator SM-102; for expression of mRNA in mice, times that of YK-302: comparator YK-302; for expression amount, times that of YK-309: comparator YK-309; for expression amount, times that of YK-313: comparator YK-313; for expression amount, times that of YK-321: comparator YK-321; for average radiation intensity, times that of compound 21: comparator compound 21; for average radiation intensity, times that of compound 23: comparator compound 23
Summary of the method: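 Female BALB/C mice (4-6 weeks, 17-19 g) received LNP-formulated Fluc-mRNA […] intramuscularly. At 6 h, 24 h, 48 h and 7 d, luciferase substrate given intraperitoneally, and after 5 min average radiance measured by IVIS whole-body imaging.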

liver = test: Distribution of liposomes in mice: protein expression in the liver (live imaging); format: in vivo; details: at 6 h, intramuscular injection
Description: The LNP formulation containing […] Fluc-mRNA was injected intramuscularly into female BALB/C mice aged 4 to 6 weeks old and weighed 17 to 19 g, and the mice were intraperitoneally injected with fluorescent imaging substrate at specific time points after administration (6 h, 24 h, 48 h and 7 d), where the mice were free to move for 5 minutes, and then the average radiation intensity (corresponding to fluorescence expression intensity) of the protein expression of the mRNA carried by the LNP in the mice was detected by the IVIS Spectrum small animal live imaging device.
At 24 h, the LNP formulations prepared from all compounds had been metabolized in the liver and had no protein expression.

## CCCCCCCCCCCOC(=O)CCCCCN(CCCC(=O)OCCCC(CCCCCCCCCC)CCCCCCCCCC)C[C@H](O)CN(CC)CCO [YK-310]
293T cells [1]; LNP formulation of Fluc-mRNA, 96-well plate, 24 hours
  Relative light unit (RLU): 25797040 RLU
293T cells [1]; RLU of YK-305 / RLU of the lipid of the line
  Multiples (YK-305): 1.06
293T cells [1]; RLU of YK-310 / RLU of the lipid of the line
  Multiples (YK-310): 1.00
293T cells [1]; RLU of YK-312 / RLU of the lipid of the line
  Multiples (YK-312): 0.78
293T cells [1]; RLU of YK-318 / RLU of the lipid of the line, Tables 5, 7, 11
  Multiples (YK-318): 0.43
293T cells [1]; RLU of YK-319 / RLU of the lipid of the line, Tables 5, 7, 11
  Multiples (YK-319): 0.95
293T cells [1]; RLU of the lipid / RLU of SM-102, times that of SM-102
  Ratio relative to SM-102: 16.08
293T cells [1]; comparator ALC-0315
  cell transfection efficiency, times that of ALC-0315: 12.69 times
293T cells [1]; comparator HHMA
  cell transfection efficiency, times that of HHMA: 12.86 times
293T cells [1]; comparator Lipofectamine 3000
  cell transfection efficiency, times that of Lipofectamine 3000: 21.76 times
293T cells [1]; comparator YK-009
  cell transfection efficiency, times that of YK-009: 5.04 times
293T cells [1]; comparator YK-301
  cell transfection efficiency, times that of YK-301: 30.62 times
293T cells [1]; comparator YK-302
  cell transfection efficiency, times that of YK-302: 928.69 times
293T cells [1]; comparator YK-303
  cell transfection efficiency, times that of YK-303: 41.19 times
293T cells [1]; comparator YK-304
  cell transfection efficiency, times that of YK-304: ~1200 times and 1247.08 times
293T cells [1]; comparator YK-306
  cell transfection efficiency, times that of YK-306: 11.74 times
293T cells [1]; comparator YK-307
  cell transfection efficiency, times that of YK-307: 5.66 times
293T cells [1]; comparator YK-308
  cell transfection efficiency, times that of YK-308: 5.12 times
293T cells [1]; comparator YK-309
  cell transfection efficiency, times that of YK-309: ~200 times and 205.77 times
293T cells [1]; comparator YK-311
  cell transfection efficiency, times that of YK-311: 13.14 times
293T cells [1]; comparator YK-313
  cell transfection efficiency, times that of YK-313: 29.77 times
293T cells [1]; comparator YK-314
  cell transfection efficiency, times that of YK-314: 47.12 times
293T cells [1]; comparator YK-315
  cell transfection efficiency, times that of YK-315: 16.25 times
293T cells [1]; comparator YK-316
  cell transfection efficiency, times that of YK-316: 5.36 times
293T cells [1]; comparator YK-317
  cell transfection efficiency, times that of YK-317: 7.16 times
293T cells [1]; comparator YK-320
  cell transfection efficiency, times that of YK-320: 9.54 times
293T cells [1]; comparator YK-321
  cell transfection efficiency, times that of YK-321: 18.38 times
293T cells [1]; comparator compound 21
  cell transfection efficiency, times that of compound 21: 18.01 times
293T cells [1]; comparator compound 23
  cell transfection efficiency, times that of compound 23: 19.02 times
[2]
  PDI (%): 12.4%
  Particle size (nm): 192 nm
293T cells [3]; LNP formulation of Fluc-mRNA, 24 hours, CCK-8
  Cell survival rate (%): 82.10%
293T cells [3]; difference of survival rates, comparator ALC-0315
  cell survival rate higher than ALC-0315: 31.07% and ~30%
293T cells [3]; difference of survival rates, comparator HHMA
  cell survival rate higher than HHMA: 15.63% and ~15%
293T cells [3]; difference of survival rates, comparator Lipofectamine 3000
  cell survival rate higher than Lipofectamine 3000: 57.09%
293T cells [3]; difference of survival rates, comparator SM-102
  cell survival rate higher than SM-102: 12.65% and ~12%
293T cells [3]; difference of survival rates, comparator YK-301
  cell survival rate higher than YK-301: 29.14%
293T cells [3]; difference of survival rates, comparator YK-302
  cell survival rate higher than YK-302: 65.67% and ~65% and ~50%
293T cells [3]; difference of survival rates, comparator YK-303
  cell survival rate higher than YK-303: 18.78%
293T cells [3]; difference of survival rates, comparator YK-304
  cell survival rate higher than YK-304: 47.94%
293T cells [3]; difference of survival rates, comparator YK-306
  cell survival rate higher than YK-306: 39.91%
293T cells [3]; difference of survival rates, comparator YK-307
  cell survival rate higher than YK-307: 20.96%
293T cells [3]; difference of survival rates, comparator YK-308
  cell survival rate higher than YK-308: 11.11%
293T cells [3]; difference of survival rates, comparator YK-309
  cell survival rate higher than YK-309: 50.49%
293T cells [3]; difference of survival rates, comparator YK-311
  cell survival rate higher than YK-311: 12.04%
293T cells [3]; difference of survival rates, comparator YK-313
  cell survival rate higher than YK-313: 13.17%
293T cells [3]; difference of survival rates, comparator YK-314
  cell survival rate higher than YK-314: 14.22%
293T cells [3]; difference of survival rates, comparator YK-315
  cell survival rate higher than YK-315: 10.82%
293T cells [3]; difference of survival rates, comparator YK-316
  cell survival rate higher than YK-316: 11.57%
293T cells [3]; difference of survival rates, comparator YK-317
  cell survival rate higher than YK-317: 22.92% and ~20%
293T cells [3]; difference of survival rates, comparator YK-320
  cell survival rate higher than YK-320: 11.03%
293T cells [3]; difference of survival rates, comparator YK-321
  cell survival rate higher than YK-321: 9.76%
293T cells [3]; difference of survival rates, comparator compound 21
  cell survival rate higher than compound 21: 11.89%
293T cells [3]; difference of survival rates, comparator compound 23
  cell survival rate higher than compound 23: 10.60%
Female BALB/C mice; 6 h
  average radiation intensity, times that of ALC-0315: 10.56 times
  average radiation intensity, times that of HHMA: 14.02 times
  average radiation intensity, times that of SM-102: 13.01 times
  expression of mRNA in mice, times that of YK-302: 625.87 times
  expression amount, times that of YK-309: 138.93 times
  expression amount, times that of YK-313: 20.64 times
  expression amount, times that of YK-321: 17.70 times
  average radiation intensity, times that of compound 21: 14.95 times
  average radiation intensity, times that of compound 23: 15.48 times
Female BALB/C mice; 6 h after intramuscular injection
  average radiation intensity: 9125240
Female BALB/C mice; 24 h
  average radiation intensity, times that of ALC-0315: 15.50 times
  average radiation intensity, times that of HHMA: 24.61 times
  average radiation intensity, times that of SM-102: 24.51 times
  expression of mRNA in mice, times that of YK-302: 746.29 times
  expression amount, times that of YK-309: 175.52 times
  expression amount, times that of YK-313: 28.27 times
  expression amount, times that of YK-321: 29.16 times and ~29 times
  average radiation intensity, times that of compound 21: 26.88 times
  average radiation intensity, times that of compound 23: 28.24 times
Female BALB/C mice; 24 h after intramuscular injection
  average radiation intensity: 2952310
Female BALB/C mice; 48 h
  average radiation intensity, times that of ALC-0315: 24.64 times
  average radiation intensity, times that of HHMA: 30.13 times
  average radiation intensity, times that of SM-102: 30.14 times
  expression of mRNA in mice, times that of YK-302: 957.07 times
  expression amount, times that of YK-309: 149.75 times
  expression amount, times that of YK-313: 38.38 times
  expression amount, times that of YK-321: 26.83 times
  average radiation intensity, times that of compound 21: 31.67 times
  average radiation intensity, times that of compound 23: 29.62 times
Female BALB/C mice; 48 h after intramuscular injection
  average radiation intensity: 981000
Female BALB/C mice; 7 d
  average radiation intensity, times that of ALC-0315: 16.67 times
  average radiation intensity, times that of HHMA: 20.01 times
  average radiation intensity, times that of SM-102: 17.74 times
  expression of mRNA in mice, times that of YK-302: 305.89 times
  expression amount, times that of YK-309: 93.52 times
  expression amount, times that of YK-313: 36.31 times
  expression amount, times that of YK-321: 17.84 times and ~17 times
  average radiation intensity, times that of compound 21: 18.23 times
  average radiation intensity, times that of compound 23: 18.82 times
Female BALB/C mice; 7 d after intramuscular injection
  average radiation intensity: 117462
liver
  protein expression in the liver: no protein expression in the liver
